Measured values taken from US7001910B1, “Thiazolidinedione derivatives as antidiabetic agents” (Vita-Invest S.A., priority 1999, dated 2006).

Legend:
[1] = tested on: genetically diabetic C57 BL male db/db mice; test: Plasma glucose reduction in genetically diabetic db/db mice after 5 days of oral treatment; type: in vivo; conditions: Mus musculus, 120 h, 5 consecutive days, plasma glucose reduction vs basal level before treatment; for inhibition in vivo at 1 mg/kg: 1 mg/kg p.o.; for inhibition in vivo at 10 mg/kg: 10 mg/kg p.o.; for inhibition in vivo at 5 mg/kg: 5 mg/kg p.o.
Procedure: The pharmacological effect of the compounds is assessed in genetically diabetic C57 BL male db/db 9–11 weeks old mice, as well as in control C57 BL db/+ animals of the same strain and age. […] In each experimental group, 8–10 animals are used, which are treated with different doses of the compounds: 1 mg/kg, 5 mg/kg, 10 mg/kg or 25 mg/kg orally during 5 consecutive days.
In the day 0 of the experiment, blood samples are collected in heparinized tubes by punction of the retroorbital vein. Plasma is separated and the levels of basal glucose and insulin are quantified.
After concluding the treatments, blood samples of each animal are collected again and plasmatic post-treatment glucose and insulin levels are quantified.
The determination of glucose is carried out by means of an enzymatic method that converts glucose into glucose 6-phosphate, a reaction coupled with the reduction of nicotinamide-dinucleotide phosphate (NADP) to NADPH by the action of glucose-6-P-dehydrogenase. The NADPH reduces the iodonitrotetrazolium, which is quantified spectrophotometrically. The absorbency at 520 nm is proportional to the concentration of glucose, ref: Randox GI, 2623 (Bergmeyer H. U., Bernt E., Schmidt F. H., Stork H. In Methods of Enzymatic Analysis, Academic Press: London and New York 1974, p. 1196).
The results are expressed as the reduction percent with regard to the basal levels determined before the beginning of the treatment.

[2] = tested on: genetically diabetic C57 BL male db/db mice; test: as above; type: in vivo; conditions: Mus musculus, 120 h, 100 mg/kg p.o., 5 consecutive days, plasma glucose reduction vs basal level before treatment

Q: Which inhibition in vivo at 1 mg/kg [1] does the source give for COc1cc(N(C)CCOc2ccc(CC3SC(=O)NC3=O)cc2)nc(OC)n1 (centres unmarked) [Example 4, 5-(4-{2-{(2,6-Dimethoxypyrimidin-4-yl)-methyl-amino]-ethoxy}-benzyl)-thiazolidine-2,4-dione] here?
A: 53%

Q: With CN(CCOc1ccc(CC2SC(=O)NC2=O)cc1)c1cc(Cl)ncn1 (centres unmarked) [Example 14, 5-(4-{2-[(6-chloropyrimidin-4-yl)-methylamino]-ethoxy}-benzyl)-thiazolidine-2,4-dione] as the compound, how does the inhibition in vivo at 1 mg/kg [1] read?
A: 51%

Q: For CN(CCOc1ccc(CC2SC(=O)NC2=O)cc1)c1ncnc2c1ncn2C (centres unmarked) [Example 12, 5-(4-{2-[Methyl-(9-methyl-9H-purin-6-yl)-amino]-ethoxy}-benzyl)-thiazolidine-2,4-dione], which inhibition in vivo at 10 mg/kg [1] is on record?
A: 25%

Q: CN(CCOc1ccc(CC2SC(=O)NC2=O)cc1)c1ncnc2nc[nH]c12 (centres unmarked) [Example 7, 5-(4-{2-[Methyl-(7H-purin-6-yl)-amino]-ethoxy}-benzyl)-thiazolidine-2,4-dione] was tested. Which inhibition in vivo at 10 mg/kg [1] did it give?
A: 47%

Q: COc1cc(N(C)CCOc2ccc(CC3SC(=O)NC3=O)cc2)ncn1 (centres unmarked) [Example 17, 5-(4-{2-[(6-Methoxypyrimidin-4-yl)-methylamino]-ethoxy}-benzyl)-thiazolidine-2,4-dione] was tested. Which inhibition in vivo at 1 mg/kg [1] did it give?
A: 48%

Q: For CN(C)c1cc(N(C)CCOc2ccc(CC3SC(=O)NC3=O)cc2)ncn1 (centres unmarked) [Example 21, 5-(4-{2-[(6-Dimethylaminopyrimidin-4-yl)-methylamino]-ethoxy}-benzyl)-thiazolidine-2,4-dione], which inhibition in vivo at 25 mg/kg ([1]; 25 mg/kg p.o.) is on record?
A: 36%

Q: Cc1c(C)c2c(c(C)c1O)CCC(C)(COc1ccc(CC3SC(=O)NC3=O)cc1)O2 (centres unmarked) [Troglitazone] was tested. Which inhibition in vivo at 100 mg/kg [2] did it give?
A: 38%

Q: With CN(CCOc1ccc(CC2SC(=O)NC2=O)cc1)c1cc(Cl)nc(N)n1 (centres unmarked) [Example 3, 5-(4-{2-[(2-amino-6-chloropyrimidin-4-yl)-methyl-amino]-ethoxy}-benzyl)-thiazolidine-2,4-dione] as the compound, how does the inhibition in vivo at 1 mg/kg [1] read?
A: 47%

Q: With CN(CCOc1ccc(CC2SC(=O)NC2=O)cc1)c1ccncn1 (centres unmarked) [Example 20, 5-{4-[2-(Methylpyrimidin-4-yl-amino)ethoxy]benzyl}-thiazolidine-2,4-dione] as the compound, how does the inhibition in vivo at 5 mg/kg [1] read?
A: 21%

Q: CN(CCOc1ccc(CC2SC(=O)NC2=O)cc1)c1cc(O)ncn1 (centres unmarked) [Example 22, 5-(4-{2-[(6-Hydroxypyrimidin-4-yl)-methylamino]-ethoxy}-benzyl)-thiazolidine-2,4-dione] was tested. Which inhibition in vivo at 5 mg/kg [1] did it give?
A: 22%

Q: With CN(CCOc1ccc(CC2SC(=O)NC2=O)cc1)c1ncnc2c1ncn2C1OC(CO)C(O)C1O (centres unmarked) [Example 11] as the compound, how does the inhibition in vivo at 10 mg/kg [1] read?
A: 30%
